Measurements as given in the NIST ThermoML archive (doi:10.1021/je060148j).

Conditions: Liquid, Closed cell (Static) method

COC [dimethyl ether]
Conditions | vapor or sublimation pressure [kPa]
219.15 K | 22.3
221.13 K | 25.2
223.11 K | 28.3
224.88 K | 31.5
226.88 K | 35.4
228.85 K | 39.5
230.86 K | 43.9
232.86 K | 48.7
234.85 K | 54.1
236.85 K | 59.8
239.14 K | 66.3
241.14 K | 73.2
244.14 K | 84
247.13 K | 96.1
249.13 K | 104.9
251.14 K | 114.3
255.13 K | 135.1
257.12 K | 146.6
259.14 K | 159
261.13 K | 171.8
263.13 K | 185.6
265.13 K | 199.8
267.13 K | 215.5
269.13 K | 231.8
271.13 K | 248.9
273.13 K | 266.8
275.04 K | 285.1
277.02 K | 305
279.02 K | 326.4
281.02 K | 348.8
283.02 K | 372.3
285.01 K | 397
287 K | 422.8
288.99 K | 449.8
290.99 K | 478.4
293.08 K | 508.9
295.07 K | 540
297.07 K | 573
299.08 K | 606.9
301.11 K | 643.1
303.08 K | 680.2
305.07 K | 718.4
307.07 K | 758.8
309.06 K | 800.7
311.07 K | 844.2
313.06 K | 889.5
315.06 K | 936.6
317.04 K | 985.3
319.03 K | 1036
321.03 K | 1088.7
323.02 K | 1143.3
325.02 K | 1200.6
327.13 K | 1262.3
329.02 K | 1319.9
331.11 K | 1385.3
333.11 K | 1450.6
335.11 K | 1518.8
337.1 K | 1588.4
339.1 K | 1660.3
341.08 K | 1733.3
343.09 K | 1811.3
345.09 K | 1891.2
347.08 K | 1972.8
349.08 K | 2057.4
351.07 K | 2144.3
353.05 K | 2232.7
355.05 K | 2326
357.05 K | 2421.9
359.05 K | 2520.3
361.04 K | 2621.5
